Assay [1] concerns the target T1, HDAC6 (Homo sapiens, UniProt Q9UBN7).
T1 construct: purchased BPS Bioscience 50006
T1 sequence (Q9UBN7 1-1215): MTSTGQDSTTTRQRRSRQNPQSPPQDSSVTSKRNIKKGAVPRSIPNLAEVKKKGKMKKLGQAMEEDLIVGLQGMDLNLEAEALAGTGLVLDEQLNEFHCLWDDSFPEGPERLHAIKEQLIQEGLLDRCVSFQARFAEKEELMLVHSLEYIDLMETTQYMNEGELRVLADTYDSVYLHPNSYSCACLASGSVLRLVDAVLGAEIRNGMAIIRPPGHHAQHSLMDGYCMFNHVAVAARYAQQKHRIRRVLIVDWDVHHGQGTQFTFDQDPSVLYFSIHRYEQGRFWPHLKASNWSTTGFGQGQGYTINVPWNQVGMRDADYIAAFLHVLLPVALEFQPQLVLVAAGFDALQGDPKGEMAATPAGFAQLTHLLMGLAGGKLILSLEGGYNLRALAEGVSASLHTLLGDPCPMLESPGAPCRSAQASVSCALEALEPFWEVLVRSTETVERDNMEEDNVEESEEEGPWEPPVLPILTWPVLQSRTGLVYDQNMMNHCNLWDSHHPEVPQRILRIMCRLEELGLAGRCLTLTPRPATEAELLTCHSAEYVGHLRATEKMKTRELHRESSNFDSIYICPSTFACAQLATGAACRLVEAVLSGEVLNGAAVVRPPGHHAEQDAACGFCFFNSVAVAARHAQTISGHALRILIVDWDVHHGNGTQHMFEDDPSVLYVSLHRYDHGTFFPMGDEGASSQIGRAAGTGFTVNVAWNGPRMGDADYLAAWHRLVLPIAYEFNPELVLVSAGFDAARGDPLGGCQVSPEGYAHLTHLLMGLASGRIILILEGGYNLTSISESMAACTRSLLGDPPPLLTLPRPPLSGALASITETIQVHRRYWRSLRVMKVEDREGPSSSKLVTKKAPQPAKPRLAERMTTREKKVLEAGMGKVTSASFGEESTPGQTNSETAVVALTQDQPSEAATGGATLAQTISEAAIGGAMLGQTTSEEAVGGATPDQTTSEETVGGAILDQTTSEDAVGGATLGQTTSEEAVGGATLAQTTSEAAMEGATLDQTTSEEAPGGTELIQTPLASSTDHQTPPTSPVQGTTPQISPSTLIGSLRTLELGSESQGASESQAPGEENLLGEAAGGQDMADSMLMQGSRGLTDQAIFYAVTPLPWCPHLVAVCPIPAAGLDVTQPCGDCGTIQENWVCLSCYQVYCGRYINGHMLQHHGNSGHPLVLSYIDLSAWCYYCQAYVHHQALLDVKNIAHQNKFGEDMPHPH
Kind of assay: In vitro HDAC6 inhibitory assay (BPS Bioscience, fluorogenic). The following applies: 10 µM. The assay is classed as biochemical. As for the experimental part:
(1 picture or pasted object on this page, not shown here)
HDAC activity assays were performed in duplicates at each concentration. The

Assay [2] concerns BT-549. Kind of assay: NCI one-dose screen. To be noted: Breast BT-549, 10 µM single dose. The assay is classed as cell-based, human. In short, it runs like this:
(§1)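 One concentration (10 μM) applied to each line of the full NCI-60 panel; percent growth compared against untreated cells.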

Assay [3] deals with HCT-15. The assay can be described thus: NCI one-dose screen. In kind it is cell-based, human. To be noted: Colon HCT-15, 10 µM single dose. Summed up: as §1
In assay [4] the test system is HOP-92. The assay can be described thus: NCI one-dose screen. The assay is classed as cell-based, human. The following applies: NSCLC HOP-92, 10 µM single dose. Summed up:
as §1

Assay [5] concerns K-562. Kind of assay: NCI one-dose screen. The assay is classed as cell-based, human. To be noted: Leukemia K-562, 10 µM single dose. Summed up:
as §1

For assay [6], the system named is KM12. Kind of assay: NCI one-dose screen. In kind it is cell-based, human. To be noted: Colon KM12, 10 µM single dose. In short, it runs like this: (§2)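 At 10 μM, a single concentration, compounds were evaluated for antiproliferative effect in the NCI 60-line screen, with growth expressed relative to untreated control cells.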
The test system of assay [7] is MOLT-4. The assay can be described thus: NCI one-dose screen. In kind it is cell-based, human. The following applies: Leukemia MOLT-4, 10 µM single dose. Summed up: as §2
In assay [8] the test system is NCI-H23. Kind of assay: NCI one-dose screen. The assay is classed as cell-based, human. To be noted: NSCLC NCI-H23, 10 µM single dose. Summed up: as §2
The test system of assay [9] is OVCAR-3. The assay can be described thus: NCI one-dose screen. In kind it is cell-based, human. To be noted: Ovarian OVCAR-3, 10 µM single dose. Summed up: as §1
Assay [10] has as its system PC-3. The assay can be described thus: NCI one-dose screen. In kind it is cell-based, human. To be noted: Prostate PC-3, 10 µM single dose. Summed up:
(§3)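 Compounds were tested at a single dose of 10 μM across the full NCI-60 cell line panel. Growth was expressed as percent growth relative to untreated control cells, reported as percent inhibition.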

In assay [11] the test system is SK-MEL-28. Kind of assay: NCI one-dose screen. In kind it is cell-based, human. The following applies: Melanoma SK-MEL-28, 10 µM single dose. In short, it runs like this:
as §3

Assay [12] concerns T-47D. The assay can be described thus: NCI one-dose screen. The assay is classed as cell-based, human. To be noted: Breast T-47D, 10 µM single dose. In short, it runs like this:
as §1

Assay [13] relates to UACC-62. Kind of assay: NCI one-dose screen. To be noted: Melanoma UACC-62, 10 µM single dose. The assay is classed as cell-based, human. Summed up:
as §1

The subject of assay [14] is full NCI 60 cell panel. The assay can be described thus: NCI one-dose screen, whole panel statistics. In kind it is cell-based, human. The following applies: 1.00E-5 Molar; for Mean Growth Percent: mean over panel. As for the experimental part:
All of the synthesised structures were selected and submitted to NCI based on computer modelling techniques and the degree of diversity of structures for the evaluation of their antiproliferative activity. The 20 synthesised compounds were selected with their respective NCI codes [NCS D-820157- NCS D-820176] for the inhibition percent assay at an initial single dose of 10 μM on the full NCI 60 cell panel, where the mean graph of the percent growth for all compounds on the full NCI cell panel is evaluated, compared to the untreated control cells (Supplementary Material). In vitro cell line inhibition % of all synthesised compounds is represented in (Table 1 of Supplementary Material).
All of the synthesised compounds (20) were submitted to NCI and selected for in vitro anticancer assay against a panel of 60 cancer cell lines. The methodology of assay and calculations is as reported.

“And” between values parts separate entries of the source, which are not always exact repeats. Equal entries are not always repeated.

In the case of `COc1cccc(NC(=O)Nc2ccc(Nc3ncnc4sc(C(=O)NCCCC(=O)NO)c(C)c34)cc2)c1` [Compound 12b, 1–(4-(6-((4-(hydroxyamino)-4-oxobutyl)carbamoyl)-5-methylthieno[2,3-d]pyrimidin-4-ylamino)phenyl)-3–(3-methoxyphenyl)urea], in [1], the “Mean % inhibition HDAC6” value is recorded as 7%. This compound also displayed an inhibition at 10 µM in assay [1] of 13%. Moreover, the “Growth Percent” value was 105.5% and 105.57% in assay [2]; 99.6% and 99.68% in [3]; 112.3% and 112.35% in assay [4]; 101.6% and 101.69% in assay [5]; 101.3% and 101.38% in [6]; 104.7% and 104.76% in assay [7]. For the same compound, the “Growth Percent” value in assay [8] is 97.5% and 97.53%; in [9], 99.3% and 99.38%; in assay [10] it was 98.6% and 98.65%; in [11], 104.0% and 104.05%; in [12], 97.6% and 97.69%; in assay [13], 95.3% and 95.39%. Moreover, the “Delta (one dose mean graph)” value in [14] came out at 18.34%. Also, the “Range (one dose mean graph)” value in [14] came to 33.01%. Moreover, in assay [14], the “Mean Growth Percent” value turned out to be 100.10%.
As for `Cc1c(C(=O)NCCCC(=O)NO)sc2ncnc(Nc3ccc(NC(=O)Nc4cccc(C(F)(F)F)c4)cc3)c12` [Compound 12c, 1–(4-(6-((4-(hydroxyamino)-4-oxobutyl)carbamoyl)-5-methylthieno[2,3-d]pyrimidin-4-ylamino)phenyl)-3–(3-(trifluoromethyl)phenyl)urea], in [1], the inhibition at 10 µM was found to be 23%. Further, the “Growth Percent” value is 118.8% and 118.81% in assay [2]; 99.9% and 99.96% in assay [3]; 130.0% and 130.03% in assay [4]; 103.8% and 103.86% in assay [5]; 102.1% and 102.13% in [6]; 102.4% and 102.48% in assay [7]. The “Growth Percent” value in assay [8] was 104.6% and 104.64%; in assay [9], 117.8% and 117.86%; in [10], 111.1% and 111.12%; in assay [11], 109.2% and 109.22%; in assay [12] it was 109.7% and 109.79%; in assay [13], 98.5% and 98.59%. In [14], the “Delta (one dose mean graph)” value came out at 33.40%. In addition, the “Range (one dose mean graph)” value in [14] was 59.27%. Also, in [14], the “Mean Growth Percent” value came out at 104.16%.
In the case of `Cc1c(C(=O)NO)sc2ncnc(Nc3cccc4[nH]cnc34)c12` [Compound 15a, 4-(1H-benzo[d]imidazol-4-ylamino)-N-hydroxy-5-methylthieno[2,3-d]pyrimidine-6-carboxamide], the “Mean % inhibition HDAC6” value in assay [1] came out at 8%. In addition, the inhibition at 10 µM in [1] amounted to 7%. Further, the “Growth Percent” value is 113.5% and 113.56% in assay [2]; 102.15% in assay [3]; 118.2% and 118.26% in [4]; 101.00% in assay [5]; 101.12% in assay [6]; 104% and 104.07% in [7]. For the same compound, the “Growth Percent” value in [8] was 92.2% and 92.27%; in assay [9] it was 106.1% and 106.13%; in assay [10], 104.3% and 104.34%; in assay [11], 107.8% and 107.83%; in assay [12], 108.3% and 108.35%; in [13], 94.2% and 94.26%. For the same compound, the “Delta (one dose mean graph)” value in assay [14] is 22.48%. Besides, the “Range (one dose mean graph)” value in [14] stood at 43.89%. For the same compound, the “Mean Growth Percent” value in assay [14] is listed as 103.12%.
`Cc1c(C(=O)NO)sc2ncnc(Nc3ccccc3)c12` [Compound 15b, N-hydroxy-5-methyl-4-(phenylamino)thieno[2,3-d]pyrimidine-6-carboxamide] displayed an inhibition at 10 µM in assay [1] of 30%. Besides, the “Growth Percent” value in [2] is 112.4% and 112.44%; in [3] it was 91.3% and 91.34%; in assay [4], 99.8% and 99.83%; in assay [5], 94.9% and 94.99%; in [6] it was 102.0% and 102.03%; in assay [7], 103.5%. Besides, the “Growth Percent” value in assay [8] is 90.5% and 90.51%; in [9] it was 96.9% and 96.92%; in [10], 100.1% and 100.15%; in [11], 100.9% and 100.91%; in assay [12] it was 90.8% and 90.83%; in [13] it was 92.5% and 92.58%. Besides, the “Delta (one dose mean graph)” value in assay [14] is reported as 24.31%. The “Range (one dose mean graph)” value in assay [14] is 53.05%. In addition, the “Mean Growth Percent” value in [14] stood at 97.09%.
On to `Cc1c(C(=O)NO)sc2ncnc(Nc3ccc(Cl)cc3)c12` [Compound 15c, 4–(4-chlorophenylamino)-N-hydroxy-5-methylthieno[2,3-d]pyrimidine-6-carboxamide], for which, in [1], the “Mean % inhibition HDAC6” value turned out to be 7%. Further, the inhibition at 10 µM in assay [1] amounted to 9%. Besides, the “Growth Percent” value in assay [2] was 116.4% and 116.44%; in [3], 101.7% and 101.72%; in assay [4], 101.5% and 101.51%; in [5], 105.0%; in assay [6], 100.9% and 100.92%; in assay [7] it was 102.3% and 102.36%. Further, the “Growth Percent” value in assay [8] is 91.8% and 91.83%; in assay [9], 98.9% and 98.94%; in [10], 97.6% and 97.64%; in [11], 110.6% and 110.64%; in assay [12], 90.6% and 90.65%; in assay [13], 92.4% and 92.45%. The “Delta (one dose mean graph)” value in assay [14] turned out to be 28.53%. Besides, the “Range (one dose mean graph)” value in [14] is recorded as 83.38%. For the same compound, the “Mean Growth Percent” value in assay [14] came to 99.73%.

(Values after PMC8253220, “Molecular design, synthesis and in vitro biological evaluation of thienopyrimidine–hydroxamic acids as chimeric kinase HDAC inhibitors: a challenging approach to combat cancer” (Journal of Enzyme Inhibition and Medicinal Chemistry, 2021).)
